Reference: publication PMC9159852, “Synthesis, Structure, and Biologic Activity of Some Copper, Nickel, Cobalt, and Zinc Complexes with 2-Formylpyridine N^4-Allylthiosemicarbazone” (Bioinorganic Chemistry and Applications, 2022)
In brackets after ≈: the same amount, converted by molar mass. Values belong to the compound of their own block, whether it stands above or below them.

Assays:
[1] = tested on: Staphylococcus aureus (ATCC 25923); design: method as in PMID 25708540; conditions: S. aureus (G+), reference drug; cited from earlier work
[2] = tested on: Escherichia coli (ATCC 25922); design: method as in PMID 25708540; conditions: E. coli (G-), reference drug; cited from earlier work
[3] = tested on: Candida albicans (ATCC 10231); design: method as in PMID 25708540; conditions: C. albicans, reference drug; cited from earlier work
[4] = design: method as in doi:10.1134/s1070363221010114; conditions: standard antioxidant; read-out: IC50 toward ABTS•+ radical cation; cited from earlier work

- melting point: 180 to 182 °C
Structure (SMILES): C=CCNC(=S)NN=Cc1cccnc1

- melting point: 163 to 165 °C
Structure (SMILES): C=CCNC(=S)NN=Cc1ccncc1

Structure (SMILES): NC(=O)N/N=C/c1ccc([N+](=O)[O-])o1 [Furacillinum, furacillinum]
- MBC [1]: 9.3 µg/mL (≈ 46.9 µM)
- MIC [1]: 9.3 µg/mL (≈ 46.9 µM)
- MBC [2]: 37.5 µg/mL (≈ 189 µM)
- MIC [2]: 18.5 µg/mL (≈ 93.4 µM)

Structure (SMILES): C[C@@H]1[C@H](O)[C@@H](C)/C=C/C=C/CC/C=C/C=C/C=C/C=C/C(O[C@H]2O[C@H](C)[C@@H](O)[C@H](N)[C@@H]2O)CC2O[C@](O)(CC(O)C(O)CCC(O)CC(O)CC(O)CC(=O)O[C@H]1C)CC(O)C2C(=O)O (stereo partly drawn) [Nystatin, nystatin]
- MFC [3]: 80 µg/mL (≈ 86.4 µM)
- MIC [3]: 80 µg/mL (≈ 86.4 µM)

Structure (SMILES): Cc1c(C)c2c(c(C)c1O)CCC(C)(C(=O)O)O2 (stereo not drawn) [Trolox, trolox]
- IC50 [4]: 33 ± 0.7 µM
